Assay results published in patent US20100041597A1, “PEPTIDES TARGETED TO PROTEIN KINASE C ISOFORMS AND USES THEREOF” (priority 2005, published 2010).

Key:
PKC-βII = assay: Competitive binding assay using cell extracts (Western blot); set-up: species or system human; key: —: no detectable affinity; Low to very low affinity at 10X or 20X or both PRE concentrations in at least one cell line in the cell extract assay; Low affinity in purified isoform assay.; Moderate affinity at 10X or 20X or both PRE concentrations in at least one cell line in the cell extract assay.; High affinity at 10X or 20X or both PRE concentrations in at least one cell line in the cell extract assay; High affinity in purified isoform assay; settings: Cell extract; PRE at 10X, 20X antibody concentration; Table 20
Procedure: (§1) Binding efficiency and specificity of the peptides PRE 2, 3, 4, 5, 6, 7, 8, 9, 10, 11, 12 and 13 (see Table 3) was also tested using cytoplasmic extracts from different cell lines expressing appropriate PKC isoforms as described for Example 1. Briefly, the protein cytoplasmic extracts were separated by electrophoresis and transferred onto nitrocellulose membranes by standard Western blotting procedures. The bands on the Western blots were detected with matching primary antibodies and alkaline phosphatase conjugated secondary antibody. The bands were then scanned and the relative density measurements obtained.
(§2) This procedure to assess the binding characteristics of the PREs is based on competition binding of the PRE with the primary anti-isoform PKC specific antibodies. The lower the measured band density, the greater the binding of the PRE to the PKC isoform. The PREs were added at 10 and 20 times (10×, 20×) the primary antibody concentration, according to classical competition between antigenic peptide and primary antibody. The following cell lines (obtained from the ATCC) were used: H661—NCI human lung carcinoma NSCLC; MDAMB231—human highly invasive breast cancer cell line from pleural effusion; LS180—human colon adenocarcinoma; LnCAP—human prostate adenocarcinoma; CCD16Lu—human lung fibroblasts; Du145—human prostate carcinoma brain metastasis, and T24—human bladder carcinoma.
(§3) In these cases, the 20× band density figures relative to control and 10× values were reliable.

PKC-δ = PKC-δ (Homo sapiens, UniProt Q05655); assay: as above; set-up: cytoplasmic extracts from different cell lines expressing appropriate PKC isoforms; endogenous in cells; host or cells: H661, MDAMB231, LS180, T24 (human, from ATCC); key to Affinity for PKC isoform δ: —: no detectable affinity; Low to very low affinity at 10X or 20X or both PRE concentrations in at least one cell line in the cell extract assay; Low affinity in purified isoform assay.; Moderate affinity at 10X or 20X or both PRE concentrations in at least one cell line in the cell extract assay.; High affinity at 10X or 20X or both PRE concentrations in at least one cell line in the cell extract assay; High affinity in purified isoform assay; settings: for Affinity for PKC isoform δ: Cell extract, PRE at 10X, 20X antibody concentration, Table 20
Procedure: as §1, §2, §3

PKC-ε = molecular target: T1, PKC-ε (Homo sapiens, UniProt Q02156); assay: as above; set-up: cytoplasmic extracts from different cell lines expressing appropriate PKC isoforms; endogenous in cells; host or cells: CCD16Lu, LnCAP, Du145, MDAMB231, LS180; key: —: no detectable affinity; Low to very low affinity at 10X or 20X or both PRE concentrations in at least one cell line in the cell extract assay; Low affinity in purified isoform assay.; Moderate affinity at 10X or 20X or both PRE concentrations in at least one cell line in the cell extract assay.; High affinity at 10X or 20X or both PRE concentrations in at least one cell line in the cell extract assay; High affinity in purified isoform assay; settings: Cell extract; PRE at 10X, 20X antibody concentration; Table 20
T1 sequence (Q02156 1-737): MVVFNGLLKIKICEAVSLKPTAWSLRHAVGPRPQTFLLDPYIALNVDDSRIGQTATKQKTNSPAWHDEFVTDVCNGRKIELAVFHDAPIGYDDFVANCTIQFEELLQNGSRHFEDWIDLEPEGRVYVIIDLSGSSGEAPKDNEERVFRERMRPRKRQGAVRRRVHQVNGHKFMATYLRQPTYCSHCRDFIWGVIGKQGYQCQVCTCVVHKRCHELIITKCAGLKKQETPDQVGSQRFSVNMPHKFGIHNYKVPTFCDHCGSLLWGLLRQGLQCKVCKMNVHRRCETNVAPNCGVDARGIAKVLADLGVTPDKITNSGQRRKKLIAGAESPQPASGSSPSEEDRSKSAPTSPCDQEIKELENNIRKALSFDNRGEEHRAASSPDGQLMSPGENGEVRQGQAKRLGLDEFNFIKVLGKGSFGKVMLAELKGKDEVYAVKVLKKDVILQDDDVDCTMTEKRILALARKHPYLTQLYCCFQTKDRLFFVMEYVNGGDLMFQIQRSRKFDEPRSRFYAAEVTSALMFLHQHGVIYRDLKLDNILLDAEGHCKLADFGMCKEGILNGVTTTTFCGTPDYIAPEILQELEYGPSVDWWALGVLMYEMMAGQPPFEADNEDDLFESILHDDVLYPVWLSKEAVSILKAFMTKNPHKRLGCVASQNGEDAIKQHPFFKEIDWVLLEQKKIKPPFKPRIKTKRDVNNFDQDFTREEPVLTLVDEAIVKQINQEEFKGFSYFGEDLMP
Procedure: as §1, §2, §3

PKC-α = assay: Binding of PREs to PKC-α in V5E-transfected IMR-32 cells and effect on cell morphology; type: cell-based, human; settings: V5E-transfected IMR-32 cells; for Relative Fluorescence Intensity (mean): PRE by pinocytic endocytosis, transfected + reagent control 113
Source text: Neuroblastoma cells from the IMR-32 cell line were stably transfected with a vector containing the V5E sequence of PKC-α as outlined above in Example 13. The V5E sequence is part of the antigenic amino acid sequence that is used to raise the commercially available anti-PKC-α isoform-specific antibody.
The peptides PRE 1, 2, 3, 4, 5, 6, 7, 8, 9, 10, 11, 12 and 13 (see Table 3) were incorporated into the transfected IMR-32 cells via pinocytic endocytosis (Molecular Probes) according to the supplier's recommendations. Following fixation and permeabilization, PKC-α was detected using an Alexa fluor secondary antibody (as described above in Example 8).
Results: The expressed V5E fragment adds to the decoration of PKC-α in the transfected IMR-32 cells since it is recognized by the same antibody (compare FIGS. 20A and 20B).

Chain of PKC-δ (Q05655 whole entry, canonical isoform): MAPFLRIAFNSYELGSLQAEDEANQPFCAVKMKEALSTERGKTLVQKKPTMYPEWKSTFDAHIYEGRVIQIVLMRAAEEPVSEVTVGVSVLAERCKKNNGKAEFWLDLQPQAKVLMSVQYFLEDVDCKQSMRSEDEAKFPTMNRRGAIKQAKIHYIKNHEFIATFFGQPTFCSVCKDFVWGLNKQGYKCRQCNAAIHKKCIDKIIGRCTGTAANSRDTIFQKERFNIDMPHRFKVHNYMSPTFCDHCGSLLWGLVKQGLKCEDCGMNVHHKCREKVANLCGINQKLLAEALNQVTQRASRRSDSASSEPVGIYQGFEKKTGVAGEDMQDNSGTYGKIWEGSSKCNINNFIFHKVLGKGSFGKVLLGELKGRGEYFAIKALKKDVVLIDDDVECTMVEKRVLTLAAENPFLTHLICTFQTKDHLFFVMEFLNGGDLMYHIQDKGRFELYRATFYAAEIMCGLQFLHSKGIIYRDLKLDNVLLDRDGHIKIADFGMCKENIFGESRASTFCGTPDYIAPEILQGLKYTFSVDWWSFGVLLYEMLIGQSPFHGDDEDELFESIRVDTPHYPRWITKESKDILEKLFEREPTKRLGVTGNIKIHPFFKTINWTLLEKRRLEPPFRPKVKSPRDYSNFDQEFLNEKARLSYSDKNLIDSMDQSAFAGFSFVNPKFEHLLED

| Substance | Affinity for PKC isoform βII (PKC-βII) | Affinity for PKC isoform δ (PKC-δ) | Affinity for PKC isoform ε (PKC-ε) | PKC-α label (PKC-α) | Relative Fluorescence Intensity (mean) (PKC-α) | effect on cell morphology (PKC-α) | effect on karyokinesis (PKC-α) | affinity for PKC-δ (PKC-δ; cell extracts) |
| --- | --- | --- | --- | --- | --- | --- | --- | --- |
| Ac-AKGIQEVKGGDAQNLIGISI-NH2 [PRE 3] | L | H | L | more intense perinuclear decoration | 83 |  |  |  |
| Ac-AKGIQEVKGGKDAQNLIGISI-NH2 [PRE 5] | H | — | L |  | 124 | poor morphology | aborted karyokinesis |  |
| Ac-ISIGILNQADK-NH2 [PRE 10] | — | H | M/L |  |  |  | aborted karyokinesis |  |
| Ac-ISIGILQNADK-NH2 [PRE 7] |  | L | — |  |  |  |  |  |
| Ac-KDANQLIGISI-NH2 [PRE 6] |  | M/H | M |  |  |  | aborted karyokinesis |  |
| Ac-KDAQNLI-NH2 [PRE 12] | L | — | — |  |  | little effect on the cell morphology |  |  |
| Ac-KDAQNLIGISI-NH2 [PRE 4, Ac-KDAQNLIGISI-NH2] | L | — | H/L | decreased label | 79 | morphological changes with enlarged cells |  | none for PKC-6 |
| Ac-RDAQNLI-NH2 [PRE 13] |  | — | — |  | 116 | little effect on the cell morphology |  |  |
| Ac-RDAQNLIGISI-NH2 [PRE 11] |  | — | — |  |  | apoptotis |  |  |
| Ac-isigilgnadk-NH2 [PRE 9] | — | H | M/L | strong perinuclear label | 121 |  |  |  |
| ILEDKGGDAQNLIGISI [PRE 8] | H | L | L |  |  |  |  |  |
| RRKKGGKDFVVKR [PRE 1] |  | — |  |  |  | many dividing cells and abnormal morphology |  |  |
